Data reported in publication PMC3919717 (PLoS ONE, 2014).

Key:
Conditions in all cases: 50 nM enzyme; BAEE 0.04-0.2 mg/ml; 37°C; native glycosylated enzyme
[1] = test system: RV-FVPγ
[2] = test system: RV-FVPβ
[3] = test system: RV-FVPα; format: biochemical, Daboia russelii
[4] = test system: RV-FVPδ

CCOC(=O)[C@H](CCCNC(=N)N)NC(=O)c1ccccc1 [BAEE]
Km [1]: 0.159 mg/mL
Km [2]: 0.156 mg/mL
Km [3]: 0.143 mg/mL
Km [4]: 0.159 mg/mL
